# In US20060121083A1 (priority 2003, published 2006):
# Read-outs that look alike come from different tables or passages of the source. Ends that are not written are not given here. Peptide text beside a SMILES is read from it. * marks the point of attachment. Lauroyl = CCCCCCCCCCCC(=O)*; Decanoyl = CCCCCCCCCC(=O)*; Octanoyl = CCCCCCCC(=O)*
# Experiments:
# [1] = tested on: methicillin-resistant S. epidermidis (MRSE); type: in vivo; conditions: rats, MRSE challenge
# Description: (§1) Animals: Adult male Wistar rats, 250-300 gr (I.N.R.C.A. I.R.R.C.S. animal facility, Ancona) were used, with 15 animals per experimental group.
# (§2) Mammalian graft infection model: Rats were anesthetized and their hair of the back was shaved and the skin cleansed with 10 percent povidone-iodine solution. One subcutaneous pocket was made on each side of the median line by a 1.5 cm incision. Aseptically, 1 square centimeter sterile albumin-sealed Dacron™ grafts (Albograft™, Sorin Biomedica Cardio, S.p.A., Saluggia VC, Italy) were implanted into the pockets. Prior to implantation grafts were soaked for 20 minutes in sterile antibiotic solutions. The pockets were closed by means of skin clips and saline solution (1 mL) containing methicillin-resistant S. aureus (MRSA) or S. epidermidis (MRSE) at a concentration of 2×10^7 colony-forming units (CFU)/mL was inoculated onto the graft surface by using a tuberculin syringe to create a subcutaneous fluid-filled pocket. The animals were returned to individual cages and thoroughly examined daily. All grafts were explanted at 7 days following implantation.
# (§3) Assessment of the infection: The explanted grafts were placed in sterile tubes, washed in sterile saline solution, placed in tubes containing 10 mL of phosphate-buffered saline solution and sonicated for 5 minutes to remove the adherent bacteria from the grafts (Balaban, N. et al, 2003. Kidney Int. 63: 340-345). Quantitation of viable staphylococci was performed by culturing serial dilutions (0.1 mL) of the bacterial suspensions on blood agar plates at 37 degrees centigrade for 48 hours. The organisms were quantitated by counting the number of colony-forming units (CFUs) per plate. The limit of detection for this method was approximately 10 CFU/mL.
# (§4) Statistical analysis: MIC values are presented as the geometric mean of three separate experiments. […] Significance was accepted when the P value was less than/equal to 0.05.
# [2] = tested on: methicillin-resistant S. aureus (MRSA); type: in vivo; conditions: rats, MRSA challenge
# Description: as §1, §2, §3, §4
# S. aureus cells = assay: Bacterial growth (CFU) of S. aureus culture grown with peptides; type: cell-based; conditions: in-vitro culture grown 2.5 hours with peptide, FIG. 5a
# Procedure: (§5) RNAIII synthesis and bacterial growth: Cultures of S. aureus (20 million cells in a volume of 30 microliters) containing an expression construct for expression of the fusion protein maiii::blaZ (described in Gov, Y. et al., 2001. Peptides. 22: 1609-20 were grown for 2.5 hours with 5 microliters peptide solution or control buffer. A 5 microliter sample was taken from the cultures, diluted in saline, and streaked on LB agar plates to quantitate CFUs. The remainder of the cultures were used to determine RNAIII synthesis (beta-lactamase activity). This was performed by adding a substrate of beta-lactamase (nitrocefin), and determining OD 490 nm/OD 650 nm, as previously described (Gov, Y. et al., 2001. Peptides. 22: 1609-20).
# [3] = tested on: Methicillin-resistant S. epidermidis clinical strain; assay: MIC by microbroth dilution method, MRSE; type: cell-based; conditions: broth-micro dilution
# Procedure: (§6) Bacterial strains: Methicillin-resistant S. aureus (abbreviated […]) ATCC 43300 was commercially purchased from Oxoid S.p.A., Milan, Italy. Methicillin-resistant S. epidermidis (abbreviated MRSE) is a clinical strain from the Institute of Infectious Diseases and Public Health, University of Ancona, Italy.
# (§7) Bacterial strain antibiotic suscepdbilty analysis: The antimicrobial susceptibilities of the bacterial strains were determined by using the microbroth dilution method, according to the procedures outlined by the National Committee for Clinical Laboratory Standards (U.S.A.). The minimal inhibitory concentration (MIC) was taken as the lowest antibiotic concentration at which observable growth was inhibited. Experiments were performed in triplicate.
# as §4
# RNAIII synthesis = RNAIII synthesis (beta-lactamase reporter, nitrocefin); type: cell-based, S. aureus; conditions: for Inhibition of RNAIII synthesis: FIG. 5b, at high peptide concentrations mostly attributable to cell death
# Procedure: as §5
# [4] = tested on: Methicillin-resistant S. aureus ATCC 43300; assay: MIC by microbroth dilution method, MRSA; type: cell-based; conditions: broth-micro dilution
# Procedure: as §6, §7, §4
# S. aureus = assay: MIC assayed against S. aureus (Table 1); type: cell-based
# [5] = graft presoaked in 10 micrograms/mL peptide, explanted at 7 days
# [6] = graft presoaked in 20 micrograms/mL peptide, explanted at 7 days
# [7] = graft presoaked in 50 micrograms/mL peptide, explanted at 7 days
# [8] = graft pre-soaked with 5 micrograms/mL rifampin alone
# [9] = graft pre-soaked with 5 micrograms/mL rifampin alone, 7 days
Molecule,"Graft bacterial load (quantitative culture) [1, 5]","Graft bacterial load (quantitative culture) [1, 6]","Graft bacterial load (quantitative culture) [1, 7]","Graft bacterial load (quantitative culture) [2, 5]","Graft bacterial load (quantitative culture) [2, 6]","Graft bacterial load (quantitative culture) [2, 7]",Bactericidal activity (CFU counts) (S. aureus cells),Inhibition of RNAIII synthesis (RNAIII synthesis),MIC (minimal inhibitory concentration) (S. aureus),also measured
YSPWTNF (YSPWTNF-NH2) [RIP],6.9×10^3±1.9×10^3 CFU/ml,8.5×10^2±2.0×10^2 CFU/ml,3.9×10^1±1.6×10^1 CFU/ml,4.1×10^4±7.1×10^3 CFU/ml,5.9×10^3±1.7×10^3 CFU/ml,8.4×10^1±3.6×10^1 CFU/ml,virtually inactive,efficiently inhibited RNAIII synthesis,–,MIC [3]: > 128 micrograms/mL; MIC [4]: > 128 micrograms/mL
CO[C@H]1/C=C/O[C@@]2(C)Oc3c(C)c(O)c4c(O)c(c(/C=N/N5CCN(C)CC5)c(O)c4c3C2=O)NC(=O)/C(C)=C\C=C\[C@H](C)[C@H](O)[C@@H](C)[C@@H](O)[C@@H](C)[C@H](OC(C)=O)[C@@H]1C [rifampin],–,–,–,–,–,–,–,–,–,"Reduction in numbers of PFUs compared to control [1, 8]: about 50%; Graft bacterial load (quantitative culture) [1, 9]: 8.8×10^2±3.0×10^2 CFU/mL; Reduction in bacterial CFU compared to control [2, 8]: about 50%; Graft bacterial load (quantitative culture) [2, 9]: 6.7×10^3±9.1×10^2 CFU/mL; MIC ([3]; Staphylococcus epidermidis, read-out: MIC): 0.5 µg/mL; MIC ([4]; Staphylococcus aureus, read-out: MIC): 0.5 µg/mL"
CC(C)C[C@H](NC(=O)[C@H](C)N)C(=O)N[C@@H](Cc1c[nH]c2ccccc12)C(=O)N[C@@H](CCCCN)C(=O)N[C@H](C(=O)N[C@@H](CC(C)C)C(=O)N[C@@H](CC(C)C)C(=O)N[C@@H](CCCCN)C(=O)N[C@@H](CCCCN)C(=O)N[C@H](C(=O)N[C@@H](CC(C)C)C(=O)N[C@@H](CCCCN)C(=O)N[C@@H](C)C(N)=O)C(C)C)[C@@H](C)O [DD13] (H-ALWKTLLKKVLKA-NH2; N-terminus assumed),5.2×10^2±1.6×10^2 CFU/ml,4.4×10^1±1.3×10^1 CFU/ml,negative quantitative cultures,5.2×10^2±1.6×10^2 CFU/ml,4.0×10^1±1.7×10^1 CFU/ml,negative quantitative cultures,potent bactericidal activity,more efficient than RIP,9 ± 3 µM,Effect on RNAIII synthesis at low peptide concentrations (RNAIII synthesis; low peptide concentrations where no cell death occurred (inset FIG. 5b)): unable to affect RNAIII synthesis
"CCCCCCCCCC(=O)N[C@@H](C)C(=O)N[C@@H](CC(C)C)C(=O)N[C@@H](Cc1c[nH]c2ccccc12)C(=O)N[C@@H](CCCCN)C(=O)N[C@H](C(=O)N[C@@H](CC(C)C)C(=O)N[C@@H](CC(C)C)C(=O)N[C@@H](CCCCN)C(=O)N[C@@H](CCCCN)C(=O)N[C@H](C(=O)N[C@@H](CC(C)C)C(=O)N[C@@H](CCCCN)C(=O)N[C@@H](C)C(N)=O)C(C)C)[C@@H](C)O [SEQ ID NO: 1, C10—, —CONH2] (Decanoyl-ALWKTLLKKVLKA-NH2)",–,–,–,–,–,–,–,–,1.5 µM,–
"CCCCCCCC(=O)N[C@@H](C)C(=O)N[C@@H](CC(C)C)C(=O)N[C@@H](Cc1c[nH]c2ccccc12)C(=O)N[C@@H](CCCCN)C(=O)N[C@H](C(=O)N[C@@H](CC(C)C)C(=O)N[C@@H](CC(C)C)C(=O)N[C@@H](CCCCN)C(=O)N[C@@H](CCCCN)C(=O)N[C@H](C(=O)N[C@@H](CC(C)C)C(=O)N[C@@H](CCCCN)C(=O)N[C@@H](C)C(N)=O)C(C)C)[C@@H](C)O [SEQ ID NO: 1, C8—, —CONH2] (Octanoyl-ALWKTLLKKVLKA-NH2)",–,–,–,–,–,–,–,–,1.5 µM,–
"CCCCCCCCCCCC(=O)N[C@@H](C)C(=O)N[C@@H](CC(C)C)C(=O)N[C@@H](Cc1c[nH]c2ccccc12)C(=O)N[C@@H](CCCCN)C(=O)N[C@H](C(=O)N[C@@H](CC(C)C)C(=O)N[C@@H](CC(C)C)C(=O)N[C@@H](CCCCN)C(=O)N[C@@H](CCCCN)C(=O)N[C@H](C(=O)N[C@@H](CC(C)C)C(=O)N[C@@H](CCCCN)C(=O)N[C@@H](C)C(N)=O)C(C)C)[C@@H](C)O [SEQ ID NO: 1, C12—, —CONH2] (Lauroyl-ALWKTLLKKVLKA-NH2)",–,–,–,–,–,–,–,–,4.5 ± 1.5 µM,–
